# Data: patent US12227653B2, “Fluorinated coumarins” (3M INNOVATIVE PROPERTIES COMPANY, priority 2019, dated 2025)
# Key:
# Type in all cases: physicochemical
# [1] = Solubility Test Method in fluorinated fluids; settings: for solubility: organic solvent or mixture, thermodynamic from solid
# Procedure: For compounds 4 and 5, a known amount of material was weighed into a scintillation vial and 1 mL of each solvent was volumetrically added followed by sonication for dissolution. For samples that completely dissolved, the formed solution was then added to additional aliquots of sample in an attempt to generate a saturated solution. […] In the case of compound 8, approximately 100 mg was suspended in 10 mL of each solvent and shaken for 1-2 h, after which the solution was filtered via syringe filter into a tared vial and the solution mass measured. The solvent was evaporated in vacuo and the mass of the remaining residue was recorded.
# These samples were repeated using less mass of Molecule 5. […] It is believed that some molecules may have a tendency to gel at high concentrations (e.g., the molecule comprises more than 50 wt % of the composition).
# UV/Vis Test Method = settings: diluted into HFE 7200, 1 cm quartz cuvette
# Procedure: Unless otherwise mentioned, the sample was diluted into HFE 7200 and spectra were collected on an Ultraviolet-Visible (UV/Vis) spectrometer (available under the trade designation “CARY 8454” from Agilent Technologies, Inc, Santa Clara, CA) using 1 cm quartz cuvettes.
# Fluorescence Test Method = settings: in CHCl3 instead of HFE 7200
# Procedure: Unless otherwise mentioned, the sample was diluted into HFE 7200 and spectra were collected on a fluorimeter (available under the trade designation “FLUOROLOG 3-21 HR” from Jobin-Yvon Horiba, Inc., Edison, NJ) in a 1 cm fluorescence cuvette under the following experimental parameters: • Orientation: 10 degree (front face) • EX Slit Width: 1.0 nm • EM Slit Width: 1.0 nm • EX Data Interval: 5 nm • EM Data Interval: 5 nm • EX Wavelength range: 300 nm to 500 nm • EM Wavelength range: 400 nm to 650 nm
smiles,measurement,setting,value
Cc1cc(=O)oc2cc(OCCCCCN(C)S(=O)(=O)C(F)(F)C(F)(F)C(F)(F)C(F)(F)F)ccc12 [Molecule 8],solubility,[1]; solvent HFE 7200,1570 µg/mL
same,solubility,[1]; solvent PF-5052,4070 µg/mL
same,Solubility (g/mL),[1]; solvent FC-70,Insoluble
same,wt % of solution,[1]; solvent FC-70,0 wt %
same,wt % of solution,[1]; solvent HFE 7200,0.1 wt %
same,wt % of solution,[1]; solvent PF-5052,0.2 wt %
same,λmax from the UV/Vis test,UV/Vis Test Method,320 nm
same,fluorescence emission λmax,Fluorescence Test Method,380 nm
same,fluorescence excitation λ,Fluorescence Test Method,320 nm
